Test [1] can be described thus: Luminescence Cell-Based Dose Confirmation HTS to Identify Activators of 5'UTR Stem-Loop Driven Alpha-Synuclein mRNA Translation in H4 Neuroglioblastoma Cells. [Related pubchem assays: 1829 (Project Summary), 1814 (Primary HTS)]. The test is classed as functional.
Test [2] can be described thus: Luminescence Cell-Based Dose Response HTS to Identify Activators of Luciferase Translation or Activity in H4 […] Cells. [Related pubchem assays: 1829 (Project Summary), 1814 (Primary HTS)]. The test is classed as functional.
In a further test the test system is H4. Description: Luminescence Cell-Based Dose Response HTS to Identify Activators of 5'UTR Stem-Loop Driven Prion Protein mRNA Translation in H4 Neuroglioblastoma Cells. [Related pubchem assays: 1829 (Project Summary), 1814 (Primary HTS)]. The test is classed as functional. The settings on record: Homo sapiens.
For another test, the target named is T1, Caspase-3 (Homo sapiens, UniProt P42574).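 Further: Dose-response selectivity test against caspase-3 for candidate inhibitors of sentrin-specific proteases (SENPs).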
T1 sequence (P42574 whole entry): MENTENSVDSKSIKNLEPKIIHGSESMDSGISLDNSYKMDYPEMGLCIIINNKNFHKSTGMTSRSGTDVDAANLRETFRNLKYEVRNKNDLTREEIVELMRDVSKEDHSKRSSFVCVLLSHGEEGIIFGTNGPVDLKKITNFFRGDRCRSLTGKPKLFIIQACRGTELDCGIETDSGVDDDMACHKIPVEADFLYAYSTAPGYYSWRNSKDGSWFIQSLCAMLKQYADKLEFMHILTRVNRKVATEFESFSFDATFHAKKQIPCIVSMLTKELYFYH
The test is classed as functional.

Test [3] addresses T2, Sentrin-specific protease 7 (Homo sapiens, UniProt Q9BQF6).
T2 sequence (Q9BQF6 whole entry): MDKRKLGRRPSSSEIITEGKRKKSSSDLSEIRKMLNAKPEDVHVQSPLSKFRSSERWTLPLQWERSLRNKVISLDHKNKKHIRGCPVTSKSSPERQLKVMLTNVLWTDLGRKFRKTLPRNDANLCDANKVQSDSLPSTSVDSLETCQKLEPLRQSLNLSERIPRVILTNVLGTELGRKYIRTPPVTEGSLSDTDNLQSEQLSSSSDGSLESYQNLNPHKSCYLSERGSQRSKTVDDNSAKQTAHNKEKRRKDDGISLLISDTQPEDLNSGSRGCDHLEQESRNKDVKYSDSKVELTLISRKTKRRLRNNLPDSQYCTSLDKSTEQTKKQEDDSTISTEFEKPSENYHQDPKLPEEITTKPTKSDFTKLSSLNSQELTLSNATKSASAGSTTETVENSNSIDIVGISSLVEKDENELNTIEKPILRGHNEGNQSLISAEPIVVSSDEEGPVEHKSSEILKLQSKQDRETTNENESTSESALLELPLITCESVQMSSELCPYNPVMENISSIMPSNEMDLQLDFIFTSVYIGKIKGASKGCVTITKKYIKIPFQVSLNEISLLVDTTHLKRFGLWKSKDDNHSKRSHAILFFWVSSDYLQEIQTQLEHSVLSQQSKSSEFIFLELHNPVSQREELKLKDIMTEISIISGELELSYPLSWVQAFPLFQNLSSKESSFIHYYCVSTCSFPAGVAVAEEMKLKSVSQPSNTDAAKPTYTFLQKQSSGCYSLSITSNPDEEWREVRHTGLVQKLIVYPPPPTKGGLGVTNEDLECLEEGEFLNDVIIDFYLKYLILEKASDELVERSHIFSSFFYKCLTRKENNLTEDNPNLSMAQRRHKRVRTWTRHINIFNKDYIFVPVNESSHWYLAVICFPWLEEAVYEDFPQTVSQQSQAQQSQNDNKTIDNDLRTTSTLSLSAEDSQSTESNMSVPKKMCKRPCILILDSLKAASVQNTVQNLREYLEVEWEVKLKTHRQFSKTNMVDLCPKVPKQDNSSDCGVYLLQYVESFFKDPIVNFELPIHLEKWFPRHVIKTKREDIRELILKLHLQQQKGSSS
The test is classed as functional.

The target of test [4] is T3, Sentrin-specific protease 6 (Homo sapiens, UniProt Q9GZR1).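 Further: Luminescence-based dose-response confirmatory assay of SENP6 inhibition, following up an ultra-high-throughput screen.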
T3 sequence (Q9GZR1 whole entry): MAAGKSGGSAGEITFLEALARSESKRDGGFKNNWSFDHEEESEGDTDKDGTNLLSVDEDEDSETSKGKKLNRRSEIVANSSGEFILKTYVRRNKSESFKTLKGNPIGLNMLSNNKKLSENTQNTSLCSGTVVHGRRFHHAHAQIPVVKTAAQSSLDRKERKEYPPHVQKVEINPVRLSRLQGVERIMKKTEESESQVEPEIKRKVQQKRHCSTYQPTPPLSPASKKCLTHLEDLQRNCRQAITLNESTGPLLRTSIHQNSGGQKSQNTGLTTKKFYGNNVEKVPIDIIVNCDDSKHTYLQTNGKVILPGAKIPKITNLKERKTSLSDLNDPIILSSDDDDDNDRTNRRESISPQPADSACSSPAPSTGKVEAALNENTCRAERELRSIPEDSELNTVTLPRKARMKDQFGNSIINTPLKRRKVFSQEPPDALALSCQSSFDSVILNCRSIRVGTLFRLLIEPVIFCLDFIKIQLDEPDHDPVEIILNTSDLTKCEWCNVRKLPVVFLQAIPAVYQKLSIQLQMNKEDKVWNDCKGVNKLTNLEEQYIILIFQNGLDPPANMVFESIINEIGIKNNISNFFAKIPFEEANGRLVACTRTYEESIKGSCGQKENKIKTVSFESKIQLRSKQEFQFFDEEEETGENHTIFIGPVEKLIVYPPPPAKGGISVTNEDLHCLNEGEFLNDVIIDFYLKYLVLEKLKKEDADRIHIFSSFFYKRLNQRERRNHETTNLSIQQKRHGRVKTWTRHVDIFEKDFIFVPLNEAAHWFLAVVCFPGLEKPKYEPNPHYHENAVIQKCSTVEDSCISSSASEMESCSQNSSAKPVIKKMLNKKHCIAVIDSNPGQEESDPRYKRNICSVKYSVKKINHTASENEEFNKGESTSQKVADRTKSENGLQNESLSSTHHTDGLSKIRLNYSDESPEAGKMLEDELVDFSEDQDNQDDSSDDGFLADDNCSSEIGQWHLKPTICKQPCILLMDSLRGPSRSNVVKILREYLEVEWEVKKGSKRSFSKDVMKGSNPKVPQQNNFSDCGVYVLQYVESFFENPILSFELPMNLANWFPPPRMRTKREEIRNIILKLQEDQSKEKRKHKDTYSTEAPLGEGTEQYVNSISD
The test is classed as functional.

Test [5] concerns the target T4, Sentrin-specific protease 8 (Homo sapiens, UniProt Q96LD8).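 Further: luminescence read-out of SENP8 inhibition, dose-response confirmation following an ultra-high-throughput screen.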
T4 sequence (Q96LD8 whole entry): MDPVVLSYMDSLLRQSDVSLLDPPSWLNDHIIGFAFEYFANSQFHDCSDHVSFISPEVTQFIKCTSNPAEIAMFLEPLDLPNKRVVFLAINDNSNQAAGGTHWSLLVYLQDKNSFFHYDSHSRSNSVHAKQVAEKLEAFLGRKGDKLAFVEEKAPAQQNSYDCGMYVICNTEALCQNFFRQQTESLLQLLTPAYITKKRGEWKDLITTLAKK
The test is classed as functional.

A short description of test [6]: Trypanosoma cruzi growth suppression in host cells – NIH3T3 host cells, beta-gal luminescence, confirmation (AID 2044).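 Further: intracellular parasites grown in NIH/3T3 mouse fibroblasts as host cells; luminescent beta-galactosidase reporter signal from transgenic T. cruzi replicating inside host cells; inhibitors lower the luminescence signal.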 The test is classed as functional, cell-based.
Test [7] in a line: NIH3T3 cell viability loss – ATP luminescence, mouse fibroblasts, counter-screen, dose response (AID 2010).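 Further: cells exposed to compound for about 90 hours before reading.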 The test is classed as functional, cell-based.
Test [8] deals with T5, Apoptotic protease-activating factor 1 (Homo sapiens, UniProt O14727).
T5 sequence (O14727 whole entry): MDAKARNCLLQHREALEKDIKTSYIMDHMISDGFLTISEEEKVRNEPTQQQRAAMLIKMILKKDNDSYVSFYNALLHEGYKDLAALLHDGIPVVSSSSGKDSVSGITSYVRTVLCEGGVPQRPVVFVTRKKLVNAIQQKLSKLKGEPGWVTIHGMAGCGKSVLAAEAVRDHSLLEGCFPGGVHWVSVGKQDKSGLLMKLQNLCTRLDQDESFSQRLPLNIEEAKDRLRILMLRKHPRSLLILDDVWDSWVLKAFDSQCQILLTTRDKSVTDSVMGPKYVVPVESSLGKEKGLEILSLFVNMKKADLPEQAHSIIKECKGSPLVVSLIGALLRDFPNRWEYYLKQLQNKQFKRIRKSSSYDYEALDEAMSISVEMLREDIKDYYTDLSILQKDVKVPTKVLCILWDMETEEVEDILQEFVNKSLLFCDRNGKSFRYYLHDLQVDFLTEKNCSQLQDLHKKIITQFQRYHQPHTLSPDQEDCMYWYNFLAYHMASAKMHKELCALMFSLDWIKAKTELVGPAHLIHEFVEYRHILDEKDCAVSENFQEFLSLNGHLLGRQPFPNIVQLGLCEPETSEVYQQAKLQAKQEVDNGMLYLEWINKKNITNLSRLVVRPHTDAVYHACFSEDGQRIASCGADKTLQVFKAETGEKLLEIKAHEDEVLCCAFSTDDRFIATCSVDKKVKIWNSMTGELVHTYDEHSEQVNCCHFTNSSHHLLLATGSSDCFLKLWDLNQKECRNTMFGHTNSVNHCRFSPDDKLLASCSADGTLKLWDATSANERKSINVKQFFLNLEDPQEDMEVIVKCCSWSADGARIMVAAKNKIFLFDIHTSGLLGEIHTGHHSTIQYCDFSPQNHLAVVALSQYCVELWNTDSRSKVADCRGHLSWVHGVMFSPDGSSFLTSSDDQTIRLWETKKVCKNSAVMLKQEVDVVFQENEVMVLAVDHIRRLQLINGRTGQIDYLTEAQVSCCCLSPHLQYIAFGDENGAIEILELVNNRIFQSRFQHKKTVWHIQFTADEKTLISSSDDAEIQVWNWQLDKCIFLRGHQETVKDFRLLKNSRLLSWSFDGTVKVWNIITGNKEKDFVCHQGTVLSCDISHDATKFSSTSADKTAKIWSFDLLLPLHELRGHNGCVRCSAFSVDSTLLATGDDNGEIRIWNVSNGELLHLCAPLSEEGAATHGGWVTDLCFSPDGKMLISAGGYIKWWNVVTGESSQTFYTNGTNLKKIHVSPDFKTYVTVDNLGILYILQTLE
The test is classed as functional.

The target in test [9] is T6, Adenosylmethionine-8-amino-7-oxononanoate aminotransferase (Mycobacterium tuberculosis, UniProt P9WQ81).
T6 sequence (P9WQ81 whole entry): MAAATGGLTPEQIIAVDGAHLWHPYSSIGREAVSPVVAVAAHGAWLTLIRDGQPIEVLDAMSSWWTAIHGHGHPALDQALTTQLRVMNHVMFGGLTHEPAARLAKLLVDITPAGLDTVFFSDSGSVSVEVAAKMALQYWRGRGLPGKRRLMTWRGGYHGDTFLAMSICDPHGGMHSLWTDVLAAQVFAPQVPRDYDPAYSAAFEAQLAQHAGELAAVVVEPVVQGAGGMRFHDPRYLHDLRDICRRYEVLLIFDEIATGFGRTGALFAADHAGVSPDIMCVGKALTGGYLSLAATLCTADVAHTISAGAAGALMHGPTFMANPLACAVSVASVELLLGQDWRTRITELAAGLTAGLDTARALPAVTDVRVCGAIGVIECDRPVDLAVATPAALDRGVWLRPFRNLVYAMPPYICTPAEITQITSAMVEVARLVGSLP
Description: Mycobacterium tuberculosis BioA enzyme inhibitor Measured in Biochemical System Using Plate Reader - 2163-02_Inhibitor_Dose_CherryPick_Activity. The test is classed as functional, Mycobacterium tuberculosis UT205.

Another test addresses T7, Protein skinhead-1 (Caenorhabditis elegans, UniProt P34707).
T7 sequence (P34707 whole entry): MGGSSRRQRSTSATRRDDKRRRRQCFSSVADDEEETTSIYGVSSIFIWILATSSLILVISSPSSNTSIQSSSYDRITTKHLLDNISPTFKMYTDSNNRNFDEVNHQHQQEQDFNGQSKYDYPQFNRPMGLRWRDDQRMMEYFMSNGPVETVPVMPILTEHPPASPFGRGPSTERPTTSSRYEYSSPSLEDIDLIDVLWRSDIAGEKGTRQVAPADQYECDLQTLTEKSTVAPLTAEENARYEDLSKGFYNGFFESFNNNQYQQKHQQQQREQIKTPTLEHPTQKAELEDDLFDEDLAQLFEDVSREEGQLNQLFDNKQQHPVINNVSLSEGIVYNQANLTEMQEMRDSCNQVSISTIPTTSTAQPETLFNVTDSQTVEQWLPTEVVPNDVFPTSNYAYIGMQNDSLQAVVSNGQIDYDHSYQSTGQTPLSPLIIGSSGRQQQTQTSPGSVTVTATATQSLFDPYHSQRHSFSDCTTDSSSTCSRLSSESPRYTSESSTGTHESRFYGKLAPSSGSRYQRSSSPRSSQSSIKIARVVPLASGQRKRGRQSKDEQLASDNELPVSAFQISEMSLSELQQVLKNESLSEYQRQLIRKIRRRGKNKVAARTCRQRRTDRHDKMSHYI
The test is classed as functional.

Activity calls are given as the source filed them.

Broadly, the EC50 is the concentration needed to bring the measured effect to its halfway point. What is called IC50 is the concentration at which inhibition is half-maximal. With `COc1ccc(-c2noc(Cc3cccs3)n2)cc1`, the EC50 in test [1] is 24.9 µM (active); in [2] it was 0.501 µM (active); in the test on H4, > 120 µM (not active). The IC50 at Caspase-3 is 27.3 µM (active); in test [3] it was 9.93 µM (active); in test [4], 31.8 µM (active); in test [5], 25 µM (active).
Consider `COc1ccc(C/N=C/c2[nH]c3ccc(Br)c(Cl)c3c2O)cc1`, for which the EC50 in [6] was 1.31 µM (active); in [7], > 60 µM (not active). Besides, the IC50 in test [8] is 59.2 µM (active).
In general, AC50 refers to the concentration giving half of the maximal activity seen. On to `O=C(C[C@@H]1C[C@@H]2c3cc(NC(=O)c4cccnc4)ccc3O[C@@H]2[C@@H](CO)O1)NCc1cccnc1`, for which, in [9], the AC50 was 10.7 µM (active).
For the compound `O=C(N/N=C/C(Cl)=C\c1ccccc1)c1cccs1`, the IC50 was 28.7 µM (active) on Caspase-3, 5.83 µM (active) in test [3], > 100 µM (inactive) in test [4] and > 100 µM (inactive) in test [5].
Turning to `c1ccc(CCNc2ncnc3c2cnn3-c2ccccc2)cc1`, the IC50 on Caspase-3 was 22.5 µM (active); in test [3], 7.14 µM (active); in test [4] it was 19.6 µM (active); in test [5] it was 22.9 µM (active); on Protein skinhead-1, > 100 µM (inactive).
Turning to `O=C(O)c1ccc(COc2ccccc2[N+](=O)[O-])o1`, the IC50 is > 100 µM (inactive) at Caspase-3, 10.5 µM (active) in test [3], 35.6 µM (active) in [4] and 31.3 µM (active) in test [5].

The values above are taken from ChEMBL document CHEMBL1201862, “PubChem BioAssay data set” (2004).
